{
  "source": "patent US20070135462A1",
  "about": "“Combination therapy” (priority 2004, published 2007)",
  "key": {"HUVEC [1]": {"system": "HUVEC", "assay": "HUVEC assay, VEGF-stimulated endothelial cell proliferation", "format": "cell-based", "settings": "Homo sapiens, read-out: IC50 for inhibition of VEGF-stimulated endothelial cell proliferation"}, "HUVEC [2]": {"system": "HUVEC", "assay": "HUVEC assay, basal endothelial cell proliferation", "format": "cell-based", "settings": "Homo sapiens, read-out: IC50 for inhibition of basal endothelial cell proliferation"}, "Calu-6 tumour xenograft": {"system": "Calu-6 tumour xenograft", "assay": "Calu-6 tumour xenograft in vivo solid tumour model", "settings": "once-daily oral, 28 days"}, "range of models": {"system": "range of models", "assay": "anti-tumour activity in a range of models", "format": "in vivo", "settings": "once-daily oral administration"}},
  "data": [
    {"smiles": "COc1cc2c(Oc3ccc4[nH]c(C)cc4c3F)ncnc2cc1OCCCN1CCCC1", "note": "[AZD2171, 4-(4-fluoro-2-methyl-1H-indol-5-yloxy)-6-methoxy-7-(3-(pyrrolidin-1-yl)propoxy)quinazoline]", "values": [
      {"measurement": "IC50", "setting": "HUVEC [1]", "result": "0.4 ± 0.2", "unit": "nM"},
      {"measurement": "IC50", "setting": "HUVEC [2]", "result": "> 500", "unit": "nM"},
      {"measurement": "inhibition of growth of Calu-6 tumour xenograft", "setting": "Calu-6 tumour xenograft; 1.5 mg/kg/day, P<0.01", "result": 49, "unit": "%"},
      {"measurement": "inhibition of growth of Calu-6 tumour xenograft", "setting": "Calu-6 tumour xenograft; 3 mg/kg/day, P<0.0001", "result": 69, "unit": "%"},
      {"measurement": "inhibition of growth of Calu-6 tumour xenograft", "setting": "Calu-6 tumour xenograft; 6 mg/kg/day, P<0.0001", "result": 91, "unit": "%"},
      {"measurement": "anti-tumour activity", "setting": "range of models", "result": "broad-spectrum anti-tumour activity"}
    ]}
  ]
}
